Laboratory results reported in the supplement of paper PMC10307832.

Legend:
Test in all cases: relative viability (nuclei count vs DMSO), 5 days (fraction); higher = more cells survive
CUDC-101 + Decitabine = compound: C#Cc1cccc(Nc2ncnc3cc(OC)c(OCCCCCCC(=O)NO)cc23)c1 [CUDC-101] + Nc1ncn([C@H]2C[C@H](O)[C@@H](CO)O2)c(=O)n1 [Decitabine] (partner 2 µM)
Summary of the method: (§1)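 Relative viability equals treated-well nuclei counts divided by vehicle-well nuclei counts. Counts came from 4× images of lung cancer cell lines grown in 1536-well plates for 5 days after pin-tool dosing on the day after seeding. Dosing used one drug alone or a fixed anchor-drug dose plus five library-drug doses (not always all listed) in √10 steps, and values are medians of duplicate plates.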

CUDC-101 + OSI-027 = compound: C#Cc1cccc(Nc2ncnc3cc(OC)c(OCCCCCCC(=O)NO)cc23)c1 [CUDC-101] + COc1cccc2cc(-c3nc([C@H]4CC[C@H](C(=O)O)CC4)n4ncnc(N)c34)[nH]c12 [OSI-027] (partner 0.5 µM)
Summary of the method: as §1

CUDC-101 + Foretinib = compound: C#Cc1cccc(Nc2ncnc3cc(OC)c(OCCCCCCC(=O)NO)cc23)c1 [CUDC-101] + COc1cc2c(Oc3ccc(NC(=O)C4(C(=O)Nc5ccc(F)cc5)CC4)cc3F)ccnc2cc1OCCCN1CCOCC1 [Foretinib] (partner 0.25 µM)
Summary of the method: as §1

Cell Line	relative viability (CUDC-101 + Decitabine; first compound 0.01 µM)	relative viability (CUDC-101 + Decitabine; first compound 0.03162 µM)	relative viability (CUDC-101 + Decitabine; first compound 0.1 µM)	relative viability (CUDC-101 + Decitabine; first compound 0.3162 µM)	relative viability (CUDC-101 + Decitabine; first compound 1 µM)	relative viability (CUDC-101 + OSI-027; first compound 0.01 µM)	relative viability (CUDC-101 + OSI-027; first compound 0.03162 µM)	relative viability (CUDC-101 + OSI-027; first compound 0.1 µM)	relative viability (CUDC-101 + OSI-027; first compound 0.3162 µM)	relative viability (CUDC-101 + OSI-027; first compound 1 µM)	relative viability (CUDC-101 + Foretinib; first compound 0.01 µM)	relative viability (CUDC-101 + Foretinib; first compound 0.03162 µM)	relative viability (CUDC-101 + Foretinib; first compound 0.1 µM)	relative viability (CUDC-101 + Foretinib; first compound 0.3162 µM)	relative viability (CUDC-101 + Foretinib; first compound 1 µM)
NCI-H2009	0.416	0.372	0.415	0.438	0.351	0.672	0.737	0.739	0.8	0.494	1.2	1.18	1.36	1.28	1.14
NCI-H2023	0.222	0.248	0.188	0.212	0.193	0.433	0.461	0.432	0.488	0.325	0.759	0.672	0.836	0.764	0.615
NCI-H2228	–	–	–	–	–	0.406	0.689	0.671	0.615	0.419	0.763	0.939	1.11	0.964	0.719
SK-LU-1	0.671	0.646	0.677	0.729	0.609	0.356	0.332	0.431	0.402	0.325	0.885	0.793	0.891	0.771	0.662
SK-MES-1	0.349	0.466	0.332	0.392	0.261	0.604	0.601	0.673	0.656	0.381	0.937	0.843	0.981	1.01	0.679
SW 1573	0.552	0.514	0.489	0.593	0.264	0.578	0.623	0.726	0.766	0.279	1.02	1.03	1.08	0.862	0.611
